Experiments:
EGIDFPOO_00532 = test system: T1, EGIDFPOO_00532; assay: nitrophenol release, absorbance; format: biochemical, Thermococcus sp. 2319x1E; details: pH 8.0, 100°C; refolding buffer with 2 M urea, 10% sucrose
T1 construct: N-terminal 6xHis-tag, pET-28b(+) NheI/XhoI, E. coli Rosetta; primers encode N-term MLVFPDSFL and C-term KYGLPEL

EGIDFPOO_00674 = test system: T2, EGIDFPOO_00674; assay: nitrophenol release, absorbance; format: biochemical, Thermococcus sp. 2319x1E; details: pH 8.0 (50 mM Tris-HCl), 100°C
T2 construct: C-terminal 6xHis-tag, pET-28b(+) NcoI/EcoRI, E. coli Rosetta; Ni-IDA purified; primers encode N-term MGYQKFGYHFHA and C-term NGASIGPGF before HHHHHH; GH57 domain 52-300, predicted catalytic E153/D253

## O=[N+]([O-])c1ccccc1O[C@@H]1O[C@H](CO)[C@H](O)[C@H](O)[C@H]1O [ONPG]
EGIDFPOO_00532
  Km: 6.23 mM

## CC(=O)Oc1ccc([N+](=O)[O-])cc1 [PNPA]
EGIDFPOO_00674
  Km: 2.57 mM

## O=[N+]([O-])c1ccc(O[C@@H]2O[C@H](CO)[C@@H](O)[C@H](O)[C@H]2O)cc1 [PNPG]
EGIDFPOO_00532
  Km: 0.18 mM

## O=[N+]([O-])c1ccc(O[C@@H]2OC[C@@H](O)[C@H](O)[C@H]2O)cc1 [PNPX]
EGIDFPOO_00532
  Km: 4.38 mM
